Measurements from patent US20200232961A1, “CHARACTERIZATION AND APPLICATION OF POLYMERS FOR IN VIVO RELEVANT DRUG ABSORPTION CHARACTERIZATION IN VITRO” (priority 2017, published 2020).
Converted amounts (≈) assume the structure as drawn. Structures can show the parent of a compound that is named as a salt. Where two headings read alike, the source gives them in different places.

Tests used:
[1] = Rotating membrane diffusion cell experiments (permeation through PDMS membrane); details: for LAG TIME (PRED.): predicted from Crank's method (Equation 16); for LAG TIME (EXP.): time to steady state transport across the membrane, linear regression of concentration versus time
[2] = Partition coefficient measurements in PDMS membranes; assay type: physicochemical; details: intrinsic non-ionized partition coefficient, N = 5
Experimental: For each drug, five membranes were prepared. Each membrane was prepared with 10 parts base to 1 part curing agent and cured at 20° C. for at least 72 hours. Once cured, the membranes were sectioned using a template and razor blade. The dimensions of the perimeter and thickness were measured using a caliper to determine the volume of membrane. After determining membrane density, subsequent volume measurements were made using the density relationship. Stock solution was distributed to 5 sample vials with 1 membrane-free vial to serve as a control. The time zero point was measured from the blank vial and time points and 1 mL samples were taken at 12 and 24 hours. The collected samples were assayed in duplicate by HPLC. Bulk transport properties of PDMS were measured to evaluate PDMS fitness for the mimicking human oral absorption. The partition coefficient was calculated according to Equation 4. K=Partition coefficient Cmem*=Equilibrium concentration of drug in membrane Caq*=Equilibrium concentration of drug in the aqueous media

[3] = not told
[4] = UTLAM diffusion cell dissolution/absorption experiment; assay type: in vitro ADME; details: 57 micron PDMS UTLAM, donor 50 mM phosphate pH 6.5, receiver pH 8.0, 37° C., 50 rpm, 162 mg dose
Experimental: According to the SEM freeze-fracture-determined thickness based on the terminal rotational speed and mass fraction of PDMS, the membranes tested in the following experiments were 57 microns thick. 130 mL of 50 mM phosphate buffer pH 6.5 was degas sed and used as the donor phase, while 100 mL of 50 mM phosphate buffer pH 8.0 was degas sed and used as the receiver phase. The rationale behind this is that PDMS has poor ability to transport ions (a […] pH-partition relationship) and the more ionized the drug is, the less driving force the drug will provide for reverse transport out of the receiver phase. […] Ultimately, this leads to a […] transport rate of ibuprofen returning to the donor compartment. […] It is understood that the measured absorption rate is […] due the additional partitioning kinetics introduced by the resin that forms the UTLAM device. […] Physiologically, it is understood that the bicarbonate buffer bulk pH and buffer capacity are lower in the duodenum and jejunum than that of the USP 2 dissolution test. […]
The PDMS UTLAM is floated in deionized water and in about two hours the PVA is dissolved enough to tease the PDMS UTLAM to the surface of the water. […] Equivalent stirring rates could be calculated for the USP 2 paddle using CFD measurements made in COMSOL. […]

[5] = Equilibrium partition coefficient of ibuprofen into VeroClear resin spheres; assay type: physicochemical; details: pH 2 in VeroClear, 10 mm diameter spheres
physchem = details: pH 2, aqueous buffer, thermodynamic from solid
Experimental: Five 1.5 mL centrifuge tubes were labeled and prepared with 1 mL of the appropriate non-ionizing buffer (see Table 5). Solid drug in powder form was added to each individual vial and then vortexed. The addition of drug and vortex mixing was repeated until there was visible undissolved drug powder present. The centrifuge tubes were then put into a hot box where they remained at an aqueous temperature of 37° C. (set point 43° C.). The internal temperature was determined by measuring the temperature of a “blank” tube in the rack. Once the internal temperature reached 37° C., the tubes were held at 37° C. for 48 hours. The tubes were removed from the hot box and centrifuged at 17,000G for 3 hours. The tubes cooled below 37° C. during the centrifugation so the tubes were re-inserted into the hot box and allowed to reach 37° C. over the course of 1 hour. Supernatant was then extracted directly from the tube in the hot box without disturbing the pellet. The supernatant was appropriately diluted for HPLC analysis.
In each permeation experiment, the donor-phase-containing drug was at a non-ionizing pH if the drug was ionizable and the receiver phase was at a completely ionizing (>99%) pH. […] Progesterone solubility was determined twice, the second time as an analytical check.

[6] = assay type: physicochemical
Experimental: This experiment was conducted in a manner similar to the experiment described in “Partition Coefficient Measurements”, above. […] Four different mass % of curing agents (4.9%, 9.1%, 16%, and 25%) were examined at two different pH conditions (2.00 HCl 13 mM & 6.50 phosphate 50 mM). The Log DPDMS was measured as a function of pH at pH 2.00, 5.00, 6.45, and 12.00 using 13 mM HCl, 50 mM acetate, 50 mM phosphate, and 39 mM NaOH buffers, respectively, at RT (FIG. 5C).

[7] = Mass increase of PDMS membranes after equilibrium partitioning with ibuprofen; assay type: physicochemical
Experimental: Ibuprofen was chosen as a model drug because of its high lipophilicity and the ability to measure the difference in mass of drug in the membrane before and after the partitioning experiment. There was no statistical difference in the positronium lifetimes, but there was a 1.76 mg±0.12 mg (n=7) mass increase in 25% by mass curing agent PDMS membranes, and a 2.90 mg±0.38 mg (n=6) mass increase in […] by mass curing agent PDMS membranes.

[8] = literature values (refs 6, 41); cited from earlier work
[9] = average PDMS KD divided by 10^LogK for PDMS

In the case of `O=C(O)c1ccccc1` [BENZOIC ACID, Benzoic Acid], the “LAG TIME (PRED.)” value [1] is reported as 238 min, the “LAG TIME (EXP.)” value [1] is reported as 25 min and the “PDMS LOGK” value [2] is reported as 0.10.

For `Cn1c(=O)c2c(ncn2C)n(C)c1=O` [CAFFEINE, Caffeine], the “PARTITION I[…]. COEFF (K*D)/10^LOGK^PDMS” value [1, 9] was 1.70 × 10^−8 CM^2 S^−1, the “AVG. PDMS (K*D)” value [3] was 6.02 × 10^−10 CM^2 S^−1 and the “LAG TIME (PRED.)” value [3] was 571 min.

For `CC(C)Cc1ccc(C(C)C(=O)O)cc1` (stereo not drawn) [IBUPROFEN, Ibuprofen], the “absorption rate (net flux)” value [4] was “within the same order of magnitude of ibuprofen absorption in human beings”, the “PARTITION INDEPENDENT DIFF. COEFF (K*D)/10^LOGK^PDMS” value [1, 9] was 2.99 × 10^−7 CM^2 S^−1 and the “PDMS LOGK” value [2] was 1.79. For the same compound, the “K (equilibrium partition coefficient) in VeroClear” value [5] was 86, the solubility thermodynamic at 48 h (physchem; NON-IONIZED SOLUBILITY) was 60 mg/mL (≈ 291 mM) and the “AVG. PDMS (K*D)” value [3] was 1.83 × 10^−5 CM^2 S^−1. For the same compound, the “LAG TIME (PRED.)” value [3] was 158 min, the “MEASURED PDMS LOGPU ± SE” value [6] was 1.81 and the “PI EQ. 6” value ([6]; calculated to fit equation 6 using data at pH 11.81 and fu~0) was 0.008. The “MEASURED PDMS PU ± SE” value ([6]; intrinsic non-ionized partition coefficient, N = 15) was 65, the “K (partition coefficient) in PDMS” value ([6]; pH 2) was 65 and the “MEASURED PDMS LOGPI ± SE” value ([6]; pH 11.81) was −0.286. The “mass increase of PDMS membrane after equilibrium partitioning” value ([7]; 3.2% by mass curing agent PDMS membranes, n=6) was 2.90 mg and the “mass increase of PDMS membrane after equilibrium partitioning” value ([7]; 25% by mass curing agent PDMS membranes, n=7) was 1.76 mg.

For `CC(C(=O)O)c1cccc(C(=O)c2ccccc2)c1` (stereo not drawn) [KETOPROFEN, Ketoprofen], the pKa [8] is given as 3.89, the “PARTITION INDEPENDENT DIFF. COEFF (K*D)/10^LOGK^PDMS” value [1, 9] is given as 2.58 × 10^−8 CM^2 S^−1 and the “AVG. PDMS (K*D)” value ([1]; non-ionized drug, donor/receiver buffer I/III as printed, 37° C., 150 rpm) is given as 9.46 × 10^−8 CM^2 S^−1. The “LAG TIME (PRED.)” value [1] was 482 min, the “LAG TIME (EXP.)” value [1] was 232 min and the “PDMS LOGK” value [2] was 0.56.

For `COCCc1ccc(OCC(O)CNC(C)C)cc1` (stereo not drawn) [METOPROLOL TARTRATE, Metoprolol Tartrate], the “PDMS LOGK” value [2] was 0.68.

With `CC(=O)[C@H]1CC[C@H]2[C@@H]3CCC4=CC(=O)CC[C@]4(C)[C@H]3CC[C@]12C` [PROGESTERONE, Progesterone] the “PARTITION INDEPENDENT DIFF. COEFF (K*D)/10^LOGK^PDMS” value [1, 9] was 1.07 × 10^−7 CM^2 S^−1, the “PDMS LOGK” value [2] was 2.03 and the solubility thermodynamic at 48 h (physchem; 13 mM hydrochloric acid buffer, NON-IONIZED SOLUBILITY (ANALY. COMP.), second determination as analytical check with different dilution, pH 2.00 13 mM hydrochloric acid buffer at 37° C.) was 20.9 mg/mL (≈ 66.5 mM). For the same compound, the solubility thermodynamic at 48 h (physchem; 13 mM hydrochloric acid buffer, NON-IONIZED SOLUBILITY, I = pH 2.00 13 mM hydrochloric acid buffer at 37° C.) was 21.3 mg/mL (≈ 67.7 mM), the “AVG. PDMS (K*D)” value [3] was 1.14 × 10^−5 CM^2 S^−1 and the “LAG TIME (PRED.)” value [3] was 158 min.
